Source: patent publication US6849659B2, “Pharmaceutical composition containing citalopram” (H. Lundbeck A/S, priority 2000, dated 2005)
Structures can show the parent of a compound that is named as a salt.

Experiment: Particle size distribution (Sympatec Helos laser diffraction)
Assay type: physicochemical
Conditions: for Particle size distribution, quantile 5% / Particle size distribution, quantile 10% / Particle size distribution, quantile 50% (median particle size) / Particle size distribution, quantile 90% / Particle size distribution, quantile 95%: Sympatec Helos
Text: As used herein, “particle size distribution” means the distribution of equivalent spherical diameters as determined by laser diffraction at 1 bar dispersive pressure in a Sympatec Helos equipment. “Median particle size”, correspondingly, means the median of said particle size distribution.

Row | Compound | Particle size distribution, quantile 5% [μm] | Particle size distribution, quantile 10% [μm] | Particle size distribution, quantile 50% (median particle size) [μm] | Particle size distribution, quantile 90% [μm] | Particle size distribution, quantile 95% [μm] | Particle size (product of the process used for the preparation of citalopram hydrobromide (background))
1 | Br.CN(C)CCCC1(c2ccc(F)cc2)OCc2cc(C#N)ccc21 (single isomer, unassigned) [Example 1, Citalopram hydrobromide] | 8.23 | 16.54 | 96.87 | 342.89 | 465.43 | –
2 | Br.CN(C)CCCC1(c2ccc(F)cc2)OCc2cc(C#N)ccc21 (single isomer, unassigned) [Example 2, Citalopram hydrobromide] | 6.67 | 11.97 | 52.70 | 352.23 | 549.42 | –
3 | Br.CN(C)CCCC1(c2ccc(F)cc2)OCc2cc(C#N)ccc21 (single isomer, unassigned) [Example 3, Citalopram hydrobromide] | 0.82 | 1.19 | 14.04 | 72.27 | 96.96 | –
4 | CN(C)CCCC1(c2ccc(F)cc2)OCc2cc(C#N)ccc21 (stereo not shown) [citalopram hydrobromide, reference compound] | – | – | – | – | – | 2-20 μm
